Reference: US6291247A, “Methods of screening for factors that disrupt neurotrophin conformation and reduce neurotrophin biological activity” (priority 1996, dated 2001)
Entries after “also recorded” stand apart in the source; their conditions may differ. Bridges are numbered along the chain shown (N, C = ends).

How the values were obtained:
[1] = test system: kindling-induced seizures; conditions: kindling animal model of epilepsy (Rashid et al. 1995); cited from earlier work
[2] = test system: DRG neurons; assay: Survival of chick DRG neurons at 24 hours; type: cell-based; conditions: 500 μM
[3] = test system: TrkA receptor; assay: Inhibition of TrkA phosphorylation by R11 in PC12 cells (Example 3); type: cell-based, rat
Protocol: Referring to FIG. 7C, the ability of R11 to influence TrkA phosphorylation was determined by incubating 10^7 PC12 cells (prepared as described above) in one mL HKR buffer with 50 ng NGF and the indicated concentrations of peptides for 15 min at 37° C. The cells were isolated by centrifugation, solubilized in lysis buffer and the TrkA receptor isolated as described above. The TrkA immunoprecipitated was dissociated in SDS reducing sample buffer and electrophoresed using a 6% polyacrylamide gel. The gel was then transferred to PVDF membrane (BioRad), probed with horseradish peroxidase-conjugated anti phosphotyrosine (RC20; Transduction) and developed using ECL (Amersham). All procedures were carried out according to the manufacturers' instructions.

[4] = test system: p75^NTR; assay: 125I-BDNF binding to p75NTR; conditions: 100 μM Zn2+, n = 3; 120 min
Protocol: Full length (1-118) mouse NGF purified by HPLC from 2.5S NGF (purity greater than 95%) was obtained from Cedarlane Laboratories (Toronto, Ont). The iodination of NGF was performed as previously described (Sutter, A, Riopelle, R. J., Harris-Warrick, R. M. & Shooter, E. M. Nerve growth factor receptors. J. Biol. Chem. 254, 5972-5982 (1979)). […] PC12 cells were grown in RPMI with 10% heat inactivated donor horse serum and 5% fetal calf serum. Each data point was set up in a single tube containing ^125 I-NGF (at the required concentration), 400,000 cells (for a final call concentration of 10^6 /ml), BDNF (at 40 nM for TrkA binding) and NGF (at 10 nM for non-specific binding) as required. The tubes were incubated for 2 hr at 4° C. and 100 μl aliquots (providing triplicate data points for each sample) were transferred to 400 μl microcentrifuges containing 200 μl of 10% glycerol in HKR. Tubes were centrifuged for 2 minutes at 5,000 rpm, the tip containing the cell pellet cut off and radioactivity bound to the cells was determined.
Human recombinant BDNF and human recombinant NT-3 were obtained from Alomone Laboratories (Israel). The iodination, crosslinking, and binding experiments using BDNF and NT-3 were performed using the methods described above for NGF. Neurite outgrowth assays were performed as described in the presence of 4.0 nM NT-3 or 8.0 nM BDNF.

[5] = test system: p75^NTR /TrkA; assay: Receptor crosslinking of 125I-NGF with transition metal ions (receptor selectivity); type: binding
Protocol: To explore the ability of other transition metals to influence the biological activities of NGF, a series of cations known to mimic in certain respects the binding of zinc to proteins were tested. […] For this reason these ions were not tested in NGF- dependant growth phenomena. […] As these studies appeared to indicate potentially complex results upon metal ions binding to NGF, a receptor crosslinking system where specific receptor types could be identified was utilized.

Sequence of p75^NTR /TrkA (P01139 122-239): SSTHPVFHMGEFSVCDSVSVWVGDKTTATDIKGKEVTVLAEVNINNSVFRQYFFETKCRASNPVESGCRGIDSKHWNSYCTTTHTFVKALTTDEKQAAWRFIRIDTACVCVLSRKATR
Sequence of p75^NTR /TrkA (P07174 30-425 partner): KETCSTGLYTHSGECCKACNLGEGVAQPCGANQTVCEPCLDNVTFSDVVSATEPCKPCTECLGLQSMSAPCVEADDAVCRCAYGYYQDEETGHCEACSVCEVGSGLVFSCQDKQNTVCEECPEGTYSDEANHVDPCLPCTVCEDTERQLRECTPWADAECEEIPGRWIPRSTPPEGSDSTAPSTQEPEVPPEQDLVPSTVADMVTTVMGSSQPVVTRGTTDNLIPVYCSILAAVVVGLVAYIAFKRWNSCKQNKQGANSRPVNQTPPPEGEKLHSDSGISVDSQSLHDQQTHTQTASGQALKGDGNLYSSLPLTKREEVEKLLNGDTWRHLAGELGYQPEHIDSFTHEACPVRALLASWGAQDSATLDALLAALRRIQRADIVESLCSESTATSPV
Sequence of p75^NTR /TrkA (P35739 33-799 partner): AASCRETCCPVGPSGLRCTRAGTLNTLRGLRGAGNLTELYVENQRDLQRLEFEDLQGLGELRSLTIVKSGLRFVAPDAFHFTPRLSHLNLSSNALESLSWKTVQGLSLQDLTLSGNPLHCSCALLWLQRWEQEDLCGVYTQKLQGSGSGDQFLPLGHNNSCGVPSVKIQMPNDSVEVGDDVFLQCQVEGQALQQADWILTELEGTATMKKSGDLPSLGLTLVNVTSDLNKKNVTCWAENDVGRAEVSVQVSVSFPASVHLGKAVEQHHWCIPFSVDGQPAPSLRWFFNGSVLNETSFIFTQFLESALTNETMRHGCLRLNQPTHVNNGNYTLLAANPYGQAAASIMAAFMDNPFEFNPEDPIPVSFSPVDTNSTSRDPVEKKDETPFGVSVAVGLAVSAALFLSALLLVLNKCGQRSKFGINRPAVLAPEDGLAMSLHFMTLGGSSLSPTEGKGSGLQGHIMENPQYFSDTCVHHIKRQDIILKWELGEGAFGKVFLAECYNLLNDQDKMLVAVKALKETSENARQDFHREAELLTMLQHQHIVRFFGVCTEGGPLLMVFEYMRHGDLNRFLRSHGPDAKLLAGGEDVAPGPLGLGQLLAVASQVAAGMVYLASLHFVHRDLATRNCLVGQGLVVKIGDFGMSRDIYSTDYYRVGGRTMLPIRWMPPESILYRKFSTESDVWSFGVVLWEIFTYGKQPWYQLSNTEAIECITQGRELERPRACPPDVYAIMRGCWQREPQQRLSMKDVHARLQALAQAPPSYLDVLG

Row | Compound | Inhibition of seizure and mossy fiber sprouting [1] | Survival of neurons at 24 hours [2] | NGF-induced TrkA phosphorylation ([3]; 200 μM, 50 ng NGF, 15 min at 37° C., PC12) | Basal TrkA phosphorylation ([3]; no NGF) | % Maximum p75NTR binding, 125I-BDNF [4] | Blocking of NGF binding to TrkA and p75NTR in receptor crosslinking [5]
1 | NH2 -Cys-Gly-Ser-Glu-Val-Pro-Asn-Ser-Ala-Arg-Cys-Cys-Val-Cys-OH (H-CGSEVPNSARCCVC-OH; disulfide 1-14, 11-12) [R11, bicyclic peptide of NGF residues 68-58/108-110, two disulfide bonds] | inhibit both seizure and mossy fiber sprouting | not influenced | abolished; also recorded: blocked | no influence |  | 
2 | [Zn+2] [Zn^2+] |  |  |  |  | 10.0 ± 4.5 % Maximum binding | blocked binding to both receptors
